≈ marks a conversion by molar mass, not a printed value.
Legend:
[1] = target: Peptidyl-prolyl cis-trans isomerase A (Homo sapiens, UniProt P62937); test: Binding affinity to Avi-tagged Cyclophilin A (unknown origin) assessed as dissociation constant by SPR analysis
[2] = Inhibition of 6His-tagged KRAS G12D mutant(1 to 169 residues)/GST-tagged GMPPNP-bound BRAF RBD (155 to 229 reisudes)/Cyclophilin A (unknown origin) tri-complex protein-protein interaction incubated for 3 hrs by TR-FERT based disruption assay; design: species or system Homo sapiens
[3] = Inhibition of 6His-tagged KRAS G12C mutant(1 to 169 residues)/GST-tagged GMPPNP-bound BRAF RBD (155 to 229 reisudes)/Cyclophilin A (unknown origin) tri-complex protein-protein interaction incubated for 3 hrs by TR-FERT based disruption assay; design: species or system Homo sapiens
[4] = Inhibition of 6His-tagged wildtype KRAS (1 to 169 residues)/GST-tagged GMPPNP-bound BRAF RBD (155 to 229 reisudes)/Cyclophilin A (unknown origin) tri-complex protein-protein interaction incubated for 3 hrs by TR-FERT based disruption assay; design: species or system Homo sapiens
[5] = system: CAPAN-1; test: Cytotoxicity against human CAPAN-1 cells harboring KRAS G12V mutant cultured as 2D cells assessed as reduction in cell viability incubated for 120 hrs by CellTiter-Glo luminescence assay; type: functional, cell-based; conditions: CAPAN-1, 120 h
[6] = system: ASPC1; test: Cytotoxicity against human ASPC1 cells harboring KRAS G12D mutant cultured as 2D cells assessed as reduction in cell viability incubated for 120 hrs by CellTiter-Glo luminescence assay; type: functional, cell-based; conditions: ASPC1, 120 h
[7] = system: NCI-H358; test: Cytotoxicity against human NCI-H358 cells harboring KRAS G12C mutant cultured as 2D cells assessed as reduction in cell viability incubated for 120 hrs by CellTiter-Glo luminescence assay; type: functional, cell-based; conditions: NCI-H358, 120 h
[8] = Inhibition of ERK1/2 phosphorylation in human CAPAN-1 cells harboring KRAS G12V mutant incubated for 4 hrs by AlphaLISA assay; type: cell-based; conditions: CAPAN-1, 4 h
[9] = Inhibition of ERK1/2 phosphorylation in human NCI-H358 cells harboring KRAS G12C mutant incubated for 4 hrs by AlphaLISA assay; type: cell-based; conditions: NCI-H358, 4 h
[10] = Inhibition of ERK1/2 phosphorylation in human ASPC1 cells harboring KRAS G12D mutant incubated for 4 hrs by AlphaLISA assay; type: cell-based; conditions: ASPC1, 4 h
[11] = Metabolic stability in mouse liver microsomes assessed as half-life at 2 uM measured upto 60 mins in presence of NADPH by LC-MS/MS analysis; type: ADME, Microsome
[12] = system: A-375; test: Cytotoxicity against human A-375 cells assessed as reduction in cell viability incubated for 120 hrs by CellTiter-Glo luminescence assay; type: functional, cell-based; conditions: A-375, 120 h
[13] = Kinetic solubility of compound in PBS at pH 7.4 measured after 5 hrs by UV analysis; type: physicochemical; conditions: read-out: Kinetic_solubility
[14] = Apparent permeability across apical to basolateral side in human Caco-2 cells at 5 uM incubated for 2 hrs by LC-MS/MS analysis; type: ADME, cell-based
[15] = Efflux ratio of apparent permeability in human Caco-2 cells at 5 uM incubated for 2 hrs by LC-MS/MS analysis; type: ADME, cell-based
[16] = Inhibition of 6His-tagged KRAS G12V mutant(1 to 169 residues)/GST-tagged GMPPNP-bound BRAF RBD (155 to 229 reisudes)/Cyclophilin A (unknown origin) tri-complex protein-protein interaction incubated for 3 hrs by TR-FERT based disruption assay; design: species or system Homo sapiens
[17] = Lipophilicity, logD of compound at pH 7.4 by Agilent 1290 II uPLC analysis; type: physicochemical; conditions: buffer
[18] = Clearance in female BALB/c mouse blood at 1 mg/kg, iv measured after 24 hrs by LC-MS/MS analysis; type: ADME, organism-based
[19] = Oral bioavailability in female BALB/c mouse blood at 10 mg/kg measured after 24 hrs by LC-MS/MS analysis; type: ADME, organism-based
[20] = system: NCI-H1975; test: Cytotoxicity against human NCI-H1975 cells harboring wildtype KRAS cultured as 2D cells assessed as reduction in cell viability incubated for 120 hrs by CellTiter-Glo luminescence assay; type: functional, cell-based; conditions: NCI-H1975, 120 h
[21] = Clearance in female BALB/c mouse at 1 mg/kg, iv measured after 24 hrs by LC-MS/MS analysis; type: ADME, organism-based; conditions: in vivo
[22] = Half-life in female BALB/c mouse at 1 mg/kg, iv measured after 24 hrs by LC-MS/MS analysis; type: ADME, organism-based; conditions: in vivo
[23] = Oral bioavailability in female BALB/c mouse at 10 mg/kg measured after 24 hrs by LC-MS/MS analysis; type: ADME, organism-based; conditions: in vivo
[24] = Clearance in female BALB/c mouse plasma at 1 mg/kg, iv measured after 24 hrs by LC-MS/MS analysis; type: ADME, organism-based
[25] = Oral bioavailability in female BALB/c mouse plasma at 10 mg/kg measured after 24 hrs by LC-MS/MS analysis; type: ADME, organism-based

Peptidyl-prolyl cis-trans isomerase A, sequence (P62937 whole entry, the tested form may be a part): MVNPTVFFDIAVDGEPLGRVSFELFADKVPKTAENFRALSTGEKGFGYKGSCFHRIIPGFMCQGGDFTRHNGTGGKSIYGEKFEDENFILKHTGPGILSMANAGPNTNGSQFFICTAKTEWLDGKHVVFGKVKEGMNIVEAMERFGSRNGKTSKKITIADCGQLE

Row | Compound | Kd [1] [nM] | IC50 [2] [nM] | IC50 [3] [nM] | IC50 [4] [nM] | EC50 [5] [nM] | IC50 [6] [nM] | EC50 [7] [nM] | EC50 [8] [nM] | EC50 [9] [nM] | EC50 [10] [nM] | half-life at 2 µM [11] [min] | EC50 [12] [nM] | solubility kinetic at 5 h [13] [µM] | Papp A→B at 2 h, 5 µM [14] [×10⁻⁶ cm/s] | efflux ratio at 2 h, 5 µM [15] | IC50 [16] [nM] | EC50 [6] [nM] | logD [17] | clearance [18] [mL/min/kg] | EC50 [20] [nM] | other results
1 | CCn1c(-c2cccnc2[C@H](C)OC)c2c3cc(ccc31)-c1csc(n1)C[C@H](NC(=O)[C@H](C(C)C)N(C)C(=O)OC)C(=O)N1CCC[C@H](N1)C(=O)OCC(C)(C)C2 | 184 | 3070 | 302 | 742 | 28 | 400 | 35 | 8 | 63 | 326 | 11 | 5420 | < 2 | 0.08 | 7.4 | – | – | – | – | – | –
2 | CCn1c(-c2cc(N3CC4CC(C3)N4C)cnc2[C@H](C)OC)c2c3cc(ccc31)-c1csc(n1)C[C@H](NC(=O)[C@H]1C[C@@H]1C)C(=O)N1CCC[C@H](N1)C(=O)OCC(C)(C)C2 | 23 | 272 | 53 | 116 | 2.1 | – | 1.7 | 0.5 | 2.1 | 4.4 | > 120 | 2980 | 130 (≈ 107 µg/mL) | 0.2 | 96 | 71 | 5.3 | 3.9 | 16.7 | – | bioavailability [19]: 5.7%
3 | CCn1c(-c2cccnc2[C@H](C)OC)c2c3cc(ccc31)-c1csc(n1)C[C@H](NC(=O)[C@H](C(C)C)N(C)C(=O)N1CCC1)C(=O)N1CCC[C@H](N1)C(=O)OCC(C)(C)C2 | 293 | 491 | 35 | 107 | 11 | 37 | 7 | 2 | 1 | 22 | 9 | 4400 | < 2 | 0.09 | 13.6 | – | – | – | – | 28 | clearance [21]: 65 mL/min/kg; half-life [22]: 48 min; bioavailability [23]: 2.2%
4 | CCn1c(-c2cc(N3CCN(C4COC4)CC3)cnc2[C@H](C)OC)c2c3cc(ccc31)-c1csc(n1)C[C@H](NC(=O)[C@H]1C[C@@H]1C)C(=O)N1CCC[C@H](N1)C(=O)OCC(C)(C)C2 | 77 | 249 | 40 | 103 | 1.8 | – | 0.8 | 0.7 | 2.9 | 4.2 | > 120 | > 10000 | 56 (≈ 47.8 µg/mL) | 0.6 | 12 | 55 | 4.1 | – | 6.67 | 0.9 | clearance [24]: 51.7 mL/min/kg; bioavailability [19]: 49%; bioavailability [25]: 27%
5 | CCn1c(-c2cc(N3CCN(C)CC3)cnc2[C@H](C)OC)c2c3cc(ccc31)-c1csc(n1)C[C@H](NC(=O)[C@H]1[C@@H]3COC[C@@H]31)C(=O)N1CCC[C@H](N1)C(=O)OCC(C)(C)C2 | 60 | 151 | 29 | 69 | 1.1 | – | 0.4 | 0.3 | 1.7 | 2.4 | > 120 | 9450 | 23 (≈ 19.3 µg/mL) | 0.3 | 43 | 40 | 2.1 | 4.1 | – | 0.4 | –
